According to patent CN101784271A, “孕激素和(6s)-5-甲基四氢叶酸的组合在治疗子宫内膜异位症并同时减轻治疗副作用以及降低怀孕初期的先天畸形的风险中的应用” (priority 2007, dated 2008):

Legend:
[1] = Clinical study in endometriosis patients, pain by visual analogue scale (VAS); format: in vivo, human; conditions: over 6 months
[2] = cited from earlier work
[3] = attributed to partial androgenic action, not progestational activity; cited from earlier work
ovulation (排卵) = conditions: daily dose; no test or source given; cited from earlier work
[4] = 2 mg dienogest daily, 24 weeks, endometriosis patients

C[C@]12CCC3=C4CCC(=O)C=C4CC[C@H]3[C@@H]1CC[C@@]2(O)CC#N [DNG]
change in pain (VAS) at end of treatment compared with start of study ([1]; DNG oral 2 mg/d (124 patients) or LA 3.75 mg s.c. every 4 weeks (128 patients), endometriosis diagnosed by laparoscopy): -47.5 mm
statistical comparison of efficacy, DNG versus LA ([1]; DNG oral 2 mg/d vs LA 3.75 mg s.c. every 4 weeks): 不劣于LA
intolerable menstruation [2, 4]: 没有报道不可耐受的月经
patients reporting irregular menstruation [2, 4]: ≤ 90%
treatment result compared with danazol or GnRH agonist [2, 4]: 相当

C#C[C@]1(O)CC[C@H]2[C@@H]3CCC4=CC(=O)CC[C@@H]4[C@H]3CC[C@@]21CC [左炔诺孕酮]
effect on bone metabolism [3]: 对骨代谢的正面影响

C#C[C@]1(O)CC[C@H]2[C@@H]3CCC4=Cc5oncc5C[C@]4(C)[C@H]3CC[C@@]21C [达那唑]
side effects of standard endometriosis treatment ([2]; human, in vivo): 显著的雄激素效应

CC(=O)O[C@]1(C(C)=O)CC[C@H]2[C@@H]3C=C(Cl)C4=CC(=O)CC[C@]4(C)[C@H]3CC[C@@]21C [醋酸氯地孕酮]
ovulation inhibition dose (ovulation (排卵)): 1.7 mg

CC(=O)O[C@]1(C(C)=O)CC[C@H]2[C@@H]3C=C(Cl)C4=CC(=O)[C@@H]5C[C@@H]5[C@]4(C)[C@H]3CC[C@@]21C [醋酸环丙孕酮]
ovulation inhibition dose (ovulation (排卵)): 1 mg
